Columns and labels:
[1] = target: Cytochrome P450 3A4 (CYP 3A4) (Homo sapiens, UniProt P08684); conditions: in vitro study (Stout and Cimino 2014); cited from earlier work
[2] = rats (Graham and Li, 1973); cited from earlier work
[3] = tested on: Chronic Constriction Injury model of chronic neuropathic pain; assay: Von Frey pain threshold in the Chronic Constriction Injury (sciatic nerve ligation) model; conditions: CCI rats
Excerpt: Male Sprague Dawley rats underwent baseline measurement of pain threshold via Von Frey testing according to the study schema in FIG. 4. The following day, rats underwent surgical ligation of the sciatic nerve using the Chronic Constriction Injury model of chronic neuropathic pain. After 7 days to allow the development of chronic neuropathic pain, rats underwent repeat Von Frey testing to determine pain threshold and started oral treatment with CBD or saline (Table 2). After 7 days of CBD or saline, rats underwent pre-dosing pain threshold determination via Von Frey testing and then received either standard dose BUP, low dose BUP, CBD alone or low dose BUP plus CBD followed by repeat post-dose pain threshold determination via Von Frey testing (Table 3).

Chain of Cytochrome P450 3A4 (CYP 3A4) (P08684 whole entry, species assumed): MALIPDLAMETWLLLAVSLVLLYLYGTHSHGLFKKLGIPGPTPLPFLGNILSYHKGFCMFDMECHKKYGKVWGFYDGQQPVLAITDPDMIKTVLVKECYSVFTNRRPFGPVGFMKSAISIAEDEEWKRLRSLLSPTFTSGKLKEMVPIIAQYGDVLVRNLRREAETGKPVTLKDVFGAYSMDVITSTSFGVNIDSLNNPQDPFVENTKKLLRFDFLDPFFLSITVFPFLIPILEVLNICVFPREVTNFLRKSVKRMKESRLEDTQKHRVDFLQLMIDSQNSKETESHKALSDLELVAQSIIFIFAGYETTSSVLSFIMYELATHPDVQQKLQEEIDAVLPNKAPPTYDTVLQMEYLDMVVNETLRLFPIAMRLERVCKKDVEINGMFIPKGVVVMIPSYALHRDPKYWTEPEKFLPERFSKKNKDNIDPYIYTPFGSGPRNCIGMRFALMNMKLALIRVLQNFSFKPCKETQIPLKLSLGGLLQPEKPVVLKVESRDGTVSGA

Which “Inhibition of CYP 3A4” value [1] does the source give for `C=C(C)[C@@H]1CCC(C)=C[C@H]1c1c(O)cc(CCCCC)cc1O` [CBD, cannabidiol] here?
Its value is “inhibits”.

And the “Effect on respiratory rate” value [2]?
Its value is “did not reduce”.

And the “Mean pain threshold (g in Von Frey Testing), Day 14-1 hour Post Dose” value ([3]; CBD alone 7 mg/kg PO days 7-14, saline IV on day 14)?
The value was 5.25 g.

And the “Pain threshold on day 14 compared to no BUP (Group 1)” value ([3]; CBD alone 7 mg/kg PO days 7-14)?
Its value is “did not significantly increase”.

And the “Mean pain threshold (g in Von Frey Testing), Day 14 Pre-Dose” value ([3]; CBD alone group, after 7 days of CBD 7 mg/kg PO, before day 14 dosing)?
The value was 5.50 g.
